Source: ChEMBL document CHEMBL1212936, “Discovery of 2-[1-(4-chlorophenyl)cyclopropyl]-3-hydroxy-8-(trifluoromethyl)quinoline-4-carboxylic acid (PSI-421), a P-selectin inhibitor with improved pharmacokinetic properties and oral efficacy in models of vascular injury” (J Med Chem, 2010)
In brackets after ≈: the same amount, converted by molar mass. Activity calls are given as the source filed them. The calls are words filed in the database; no cut-off is given here.

Key:
[1] = Physiological stability of the compound at pH 7.4 assessed as compound remaining after 24 hrs in presence of 20% acetonitrile; assay type: physicochemical; conditions: read-out: Stability
[2] = Solubility of the compound in fasted simulated intestinal bile salts-lecithin mixture fluid at pH 6; assay type: physicochemical
[3] = Oral bioavailability in Beagle dog at 10 mg/kg; assay type: ADME, organism-based, Canis lupus familiaris; conditions: in vivo
[4] = target: T1, P-selectin glycoprotein ligand 1 (Homo sapiens) (UniProt Q14242); assay: Binding affinity to recombinant PSGL-1 assessed as saturation transfer difference at 100 uM by NMR analysis
T1 sequence (whole entry): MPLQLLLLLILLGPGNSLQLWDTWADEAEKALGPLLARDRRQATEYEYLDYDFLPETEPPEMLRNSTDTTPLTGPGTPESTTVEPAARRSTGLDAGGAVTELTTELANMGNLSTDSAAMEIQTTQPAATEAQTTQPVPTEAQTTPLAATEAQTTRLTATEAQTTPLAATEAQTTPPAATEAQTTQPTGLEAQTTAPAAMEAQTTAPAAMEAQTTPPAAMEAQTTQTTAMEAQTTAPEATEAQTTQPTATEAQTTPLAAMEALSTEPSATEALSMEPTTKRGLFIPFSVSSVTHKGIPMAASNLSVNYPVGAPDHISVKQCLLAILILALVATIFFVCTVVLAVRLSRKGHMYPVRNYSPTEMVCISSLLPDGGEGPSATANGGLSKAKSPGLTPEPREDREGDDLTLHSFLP

[5] = tested on: Plasma; assay: Drug level in Sprague-Dawley rat plasma at 30 mg/kg, po; assay type: ADME, organism-based; design: dose 30 mg/kg, route oral; conditions: in vivo
[6] = Physiological stability of the compound at pH 6.6 assessed as compound remaining after 12 hrs in presence of 20% acetonitrile; assay type: physicochemical; conditions: read-out: Stability
[7] = Physiological stability of the compound at pH 6.6 assessed as compound remaining after 24 hrs in presence of 20% acetonitrile; assay type: physicochemical; conditions: read-out: Stability
[8] = tested on: Plasma; assay: Drug level in Sprague-Dawley rat plasma at 3 mg/kg, po; assay type: ADME, organism-based; design: dose 3 mg/kg, route oral; conditions: in vivo
[9] = Solubility of the compound in fed simulated intestinal bile salts-lecithin mixture fluid at pH 5.5; assay type: physicochemical
[10] = Physiological stability of the compound at pH 9 assessed as compound remaining after 24 hrs in presence of 20% acetonitrile; assay type: physicochemical; conditions: read-out: Stability
[11] = tested on: Rattus norvegicus; assay: Inhibition of leukocytes rolling flux in acute intravital microscopy model of Sprague-Dawley rat cremasteric postcapillary venules at 15 mg/kg, po after 35 mins relative to control; assay type: functional
[12] = Physiological stability of the compound at pH 6.6 assessed as compound remaining after 8 hrs in presence of 20% acetonitrile; assay type: physicochemical; conditions: read-out: Stability
[13] = tested on: Plasma; assay: Drug level in Sprague-Dawley rat plasma at 15 mg/kg, po; assay type: ADME, organism-based; design: dose 15 mg/kg, route oral; conditions: in vivo
[14] = Physiological stability of the compound at pH 1 assessed as compound remaining after 20 hrs in presence of 20% acetonitrile; assay type: physicochemical; conditions: read-out: Stability
[15] = tested on: Mus musculus; assay: Dose normalized AUC in C57B6 mouse measured per mg of plasma at 2 mg/kg, iv and 10 mg/kg, po; assay type: ADME, organism-based; conditions: in vivo
[16] = Physiological stability of the compound at pH 4.5 assessed as compound remaining after 4 hrs in presence of 20% acetonitrile; assay type: physicochemical; conditions: read-out: Stability
[17] = Physiological stability of the compound at pH 7.4 assessed as compound remaining after 20 hrs in presence of 20% acetonitrile; assay type: physicochemical; conditions: read-out: Stability
[18] = tested on: Cynomolgus monkey; assay: Dose normalized AUC in cynomolgus monkey measured per mg of plasma at 5 mg/kg, iv and po; assay type: ADME, organism-based, Macaca fascicularis; design: dose 5 mg/kg, route oral; conditions: in vivo
[19] = Half life in cynomolgus monkey liver microsomes; assay type: ADME, Macaca fascicularis, Microsome
[20] = Physiological stability of the compound at pH 9 assessed as compound remaining after 12 hrs in presence of 20% acetonitrile; assay type: physicochemical; conditions: read-out: Stability
[21] = Physiological stability of the compound in simulated intestinal fluid assessed as compound remaining after 12 hrs in presence of 20% acetonitrile; assay type: physicochemical; conditions: read-out: Stability
[22] = Solubility of the compound in simulated intestinal fluid; assay type: physicochemical
[23] = Physiological stability of the compound in simulated intestinal bile salts-lecithin mixture fluid assessed as compound remaining after 16 hrs in presence of 20% acetonitrile; assay type: physicochemical; conditions: read-out: Stability
[24] = Physiological stability of the compound at pH 6.6 assessed as compound remaining after 16 hrs in presence of 20% acetonitrile; assay type: physicochemical; conditions: read-out: Stability
[25] = Physiological stability of the compound at pH 4.5 assessed as compound remaining after 24 hrs in presence of 20% acetonitrile; assay type: physicochemical; conditions: read-out: Stability
[26] = Genotoxicity in Salmonella Typhimurium by Ames test; assay type: toxicity; conditions: salmonella enterica subsp. enterica serovar typhimurium
[27] = Physiological stability of the compound in simulated intestinal fluid assessed as compound remaining after 4 hrs in presence of 20% acetonitrile; assay type: physicochemical; conditions: read-out: Stability
[28] = Oral bioavailability in Sprague-Dawley rat at 10 mg/kg; assay type: ADME, organism-based; conditions: in vivo
[29] = Aqueous solubility of the compound at pH 7.4; assay type: physicochemical; conditions: aqueous solution, read-out: solubility
[30] = tested on: Papio anubis; assay: Antithrombotic activity in Baboon deep vein thrombosis model assessed as decrease in vein wall inflammation at 1 mg/kg, po; assay type: functional, organism-based; design: dose 1 mg/kg
[31] = Half life in C57B6 mouse liver microsomes; assay type: ADME, Microsome
[32] = Oral bioavailability in cynomolgus monkey at 5 mg/kg; assay type: ADME, organism-based, Macaca fascicularis; conditions: in vivo
[33] = target: T1, P-selectin glycoprotein ligand 1 (Homo sapiens); assay: Inhibition of recombinant PSGL-1 at 250 uM by surface plasmon resonance assay
[34] = target: Voltage-gated inwardly rectifying potassium channel KCNH2 (Homo sapiens, UniProt Q12809); assay: Inhibition of human ERG
[35] = tested on: Rattus norvegicus; assay: Inhibition of leukocytes rolling flux in acute intravital microscopy Sprague-Dawley rat model at 30 mg/kg, po after 35 mins relative to control; assay type: functional
[36] = Physiological stability of the compound at pH 1 assessed as compound remaining after 4 hrs in presence of 20% acetonitrile; assay type: physicochemical; conditions: read-out: Stability
[37] = Clearance in Beagle dog at 2 mg/kg, iv and 10 mg/kg, po; assay type: ADME, organism-based, Canis lupus familiaris; conditions: in vivo
[38] = Physiological stability of the compound in simulated intestinal bile salts-lecithin mixture fluid assessed as compound remaining after 12 hrs in presence of 20% acetonitrile; assay type: physicochemical; conditions: read-out: Stability
[39] = Physiological stability of the compound at pH 4.5 assessed as compound remaining after 8 hrs in presence of 20% acetonitrile; assay type: physicochemical; conditions: read-out: Stability
[40] = tested on: Plasma; assay: Drug level in Sprague-Dawley rat plasma at 7.5 mg/kg, po; assay type: ADME, organism-based; design: dose 7.5 mg/kg, route oral; conditions: in vivo
[41] = Physiological stability of the compound in simulated intestinal fluid assessed as compound remaining after 16 hrs in presence of 20% acetonitrile; assay type: physicochemical; conditions: read-out: Stability
[42] = Physiological stability of the compound in simulated intestinal bile salts-lecithin mixture fluid assessed as compound remaining after 4 hrs in presence of 20% acetonitrile; assay type: physicochemical; conditions: read-out: Stability
[43] = tested on: Papio anubis; assay: Antithrombotic activity in Baboon deep vein thrombosis model assessed as vein opening at 1 mg/kg, po; assay type: functional, organism-based; design: dose 1 mg/kg
[44] = Physiological stability of the compound at pH 7.4 assessed as compound remaining after 4 hrs in presence of 20% acetonitrile; assay type: physicochemical; conditions: read-out: Stability
[45] = Aqueous solubility of the compound at pH 9; assay type: physicochemical; conditions: aqueous solution, read-out: solubility
[46] = Physiological stability of the compound at pH 6.6 assessed as compound remaining after 4 hrs in presence of 20% acetonitrile; assay type: physicochemical; conditions: read-out: Stability
[47] = Half life in human liver microsomes; assay type: ADME, Microsome
[48] = Physiological stability of the compound at pH 7.4 assessed as compound remaining after 8 hrs in presence of 20% acetonitrile; assay type: physicochemical; conditions: read-out: Stability

Chain of Voltage-gated inwardly rectifying potassium channel KCNH2 (Q12809 whole entry): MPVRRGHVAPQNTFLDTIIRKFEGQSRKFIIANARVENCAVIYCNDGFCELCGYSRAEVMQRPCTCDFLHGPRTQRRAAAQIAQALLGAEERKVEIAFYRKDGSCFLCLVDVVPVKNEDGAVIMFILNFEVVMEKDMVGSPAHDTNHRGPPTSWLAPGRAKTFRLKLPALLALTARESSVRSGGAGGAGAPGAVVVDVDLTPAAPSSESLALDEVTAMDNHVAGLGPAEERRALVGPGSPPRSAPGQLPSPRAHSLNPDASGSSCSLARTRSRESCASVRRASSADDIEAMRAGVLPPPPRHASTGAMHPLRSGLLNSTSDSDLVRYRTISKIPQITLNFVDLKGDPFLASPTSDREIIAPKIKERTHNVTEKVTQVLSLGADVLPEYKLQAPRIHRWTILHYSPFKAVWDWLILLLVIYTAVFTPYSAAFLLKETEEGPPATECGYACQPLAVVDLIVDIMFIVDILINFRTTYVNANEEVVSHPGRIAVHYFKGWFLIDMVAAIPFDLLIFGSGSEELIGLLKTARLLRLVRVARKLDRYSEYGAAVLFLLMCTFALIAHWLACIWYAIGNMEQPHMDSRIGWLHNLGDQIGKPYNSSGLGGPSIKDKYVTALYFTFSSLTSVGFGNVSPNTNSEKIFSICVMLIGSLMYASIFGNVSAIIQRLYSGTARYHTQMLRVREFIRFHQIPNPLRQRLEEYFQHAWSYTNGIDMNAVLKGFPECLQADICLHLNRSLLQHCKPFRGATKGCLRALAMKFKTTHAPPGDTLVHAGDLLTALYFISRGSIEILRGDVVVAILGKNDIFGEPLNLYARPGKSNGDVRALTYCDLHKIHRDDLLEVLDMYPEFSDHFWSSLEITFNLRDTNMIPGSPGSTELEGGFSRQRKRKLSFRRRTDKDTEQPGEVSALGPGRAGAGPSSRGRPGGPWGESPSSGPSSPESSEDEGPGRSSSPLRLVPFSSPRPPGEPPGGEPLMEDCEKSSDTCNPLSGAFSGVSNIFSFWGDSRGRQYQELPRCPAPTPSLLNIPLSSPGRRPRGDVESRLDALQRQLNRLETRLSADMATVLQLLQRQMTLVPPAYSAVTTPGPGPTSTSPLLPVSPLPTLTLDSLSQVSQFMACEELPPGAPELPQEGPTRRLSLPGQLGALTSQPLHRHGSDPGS

remaining at 24 h [1]: 103%
solubility [2]: 87 µg/mL
bioavailability [3]: 100%
Activity [4]: 9%
Cp [5]: 38000 ng/mL
remaining at 12 h [6]: 106%
remaining at 24 h [7]: 104%
Cp [8]: 3000 ng/mL
solubility [9]: 835 µg/mL
remaining at 24 h [10]: 99.6%
remaining at 8 h [12]: 104%
Cp [13]: 24000 ng/mL
remaining at 20 h [14]: 102%
AUC [15]: 1505 ng·h/mL
remaining at 4 h [16]: 102%
remaining at 20 h [17]: 102%
AUC [18]: 84620 ng·h/mL
half-life [19]: > 1 h
remaining at 12 h [20]: 98.8%
remaining at 12 h [21]: 101%
solubility [22]: 3950 µg/mL (≈ 9690 µM)
remaining at 16 h [23]: 102%
remaining at 16 h [24]: 103%
remaining at 24 h [25]: 102%
remaining at 4 h [27]: 101%
bioavailability [28]: 67%
solubility [29]: 165 µg/mL (≈ 405 µM)
half-life [31]: > 1 h
bioavailability [32]: 96%
inhibition [33]: 55%
remaining at 4 h [36]: 101%
clearance [37]: 0.9 mL/min/kg
remaining at 12 h [38]: 101%
remaining at 8 h [39]: 102%
Cp [40]: 6000 ng/mL
remaining at 16 h [41]: 101%
remaining at 4 h [42]: 102%
remaining at 4 h [44]: 102%
solubility [45]: 1070 µg/mL (≈ 2630 µM)
remaining at 4 h [46]: 102%
half-life [47]: > 1 h
remaining at 8 h [48]: 102%
Structure (SMILES): O=C(O)c1c(O)c(C2(c3ccc(Cl)cc3)CC2)nc2c(C(F)(F)F)cccc12
inhibition in vivo at 15 mg/kg [11]: 51%
Activity [26]: Non-toxic
Activity [30]: Active
inhibition (INH) [34]: Not Active
inhibition in vivo at 30 mg/kg [35]: 61%
Activity [43]: Active
